The values below come from patent publication EP3212201B1, “NUCLEOSIDE KINASE INHIBITORS” (BCI Pharma, priority 2014, dated 2016).

The structures appear in SMILES notation.

Assay in all cases: FRET-based coupled-enzyme protein kinase inhibition assay
Common to all, as to type: biochemical
Holding throughout (conditions): compound at 10 µM, 1% DMSO

In one assay the target is ABL1 (Homo sapiens, UniProt P00519). On the procedure: (§1) A biochemical assay was then performed in order to measure the protein kinase inhibition. It employed a fluorescence-based coupled-enzyme format and was based on the differential sensitivity of phosphorylated and non-phosphorylated peptides to proteolytic cleavage.
(§2) Peptide substrates were labeled with two fluorophores. The two fluorohores used were coumarin (donor) and fluorecein (acceptor), and each of the peptides was bearing one at one end, and one at the other end, which made up fluorescence resonance energy transfer (FRET) pair peptides.
(§3) In a primary reaction, the FRET-peptides were submitted to a phosphorylation reaction, in which one of adenosine triphosphate (ATP)'s phosphate groups was transferred to the peptide in the presence of kinase. When kinase inhibition takes place, the peptide will not be phosphorylated. In a secondary reaction, both the phosphorylated FRET-peptides and the non-phosphorylated FRET-peptides were reacted with a development reagent. It has been observed that non-phosphorylated FRET-peptides were cleaved, whereas the phosphorylted FRET-peptide remained intact.
(§4) Cleavage disrupts FRET between the donor (i.e., coumarin) and acceptor (i.e., fluorescein) fluorophores on the FRET-peptide, whereas uncleaved, phosphorylated FRET-peptides maintain FRET. A ratiometric method, which calculates the Emission Ratio of donor emission to acceptor emission after excitation of the donor fluorophore at 400 nm, is used to quantitate reaction progress, as shown in the equation below. [formula]
(§5) A significant benefit of this ratiometric method for quantitating reaction progress is the elimination of well-to-well variations in FRET-peptide concentration and signal intensities. As a result, the assay yields very high Z'factor values (>0.7) at a low percent phosphorylation. Both cleaved and uncleaved FRET-peptides contribute to the fluorescence signals and therefore to the Emission Ratio. The extent of phosphorylation of the FRET-peptide can be calculated from the Emission Ratio. The Emission Ratio will remain low if the FRET-peptide is phosphorylated (i.e., no kinase inhibition) and will be high if the FRET-peptide is non-phosphorylated (i.e., kinase inhibition).
(§6) The Test Compounds were screened in 1% DMSO. For 10 point titrations, 3-fold serial dilutions were prepared from the starting concentration.
(§7) All Peptide/Kinase Mixtures were diluted to a 2X working concentration in the appropriate Kinase Buffer (50 mM HEPES pH 7.5, 0.01% BRIJ-35, 10 mM MgCl2, 1 mM […]).
(§8) All ATP Solutions were diluted to a 4X working concentration in Kinase Buffer. ATP Km apparent was previously determined using another assay.
(§9) 2.5 µL - 4X Test Compound or 100 nL 100X plus 2.4 µL kinase buffer were mixed together with 2. 5 µL - 2X Peptide/Kinase Mixture and 3. 2.5 µL - 4X ATP Solution.
(§10) The solution was plate-shaked for 30 seconds, then incubated 60 minutes at room temperature for kinase reaction. 5 µL of Development Reagent Solution were then added, followed by a 30-second plate shake and a 60-minute Development Reaction incubation at room temperature. The results were read on a fluorescence plate reader and the data was analyzed.
(§11) The compounds that show the highest Emission Ratio are the ones that also show the highest protein kinase inhibition properties.

The next assay addresses AKT1 (PKB alpha) (Homo sapiens, UniProt P31749). How it is done: as §1, §2, §3, §4, §5, §6, §7, §8, §9, §10, §11
For another assay, the target named is AMPK A1/B1/G1 (Homo sapiens, UniProt Q13131). On the procedure: as §1, §2, §3, §4, §5, §6, §7, §8, §9, §10, §11
Chain of AMPK A1/B1/G1 (Q13131 whole entry): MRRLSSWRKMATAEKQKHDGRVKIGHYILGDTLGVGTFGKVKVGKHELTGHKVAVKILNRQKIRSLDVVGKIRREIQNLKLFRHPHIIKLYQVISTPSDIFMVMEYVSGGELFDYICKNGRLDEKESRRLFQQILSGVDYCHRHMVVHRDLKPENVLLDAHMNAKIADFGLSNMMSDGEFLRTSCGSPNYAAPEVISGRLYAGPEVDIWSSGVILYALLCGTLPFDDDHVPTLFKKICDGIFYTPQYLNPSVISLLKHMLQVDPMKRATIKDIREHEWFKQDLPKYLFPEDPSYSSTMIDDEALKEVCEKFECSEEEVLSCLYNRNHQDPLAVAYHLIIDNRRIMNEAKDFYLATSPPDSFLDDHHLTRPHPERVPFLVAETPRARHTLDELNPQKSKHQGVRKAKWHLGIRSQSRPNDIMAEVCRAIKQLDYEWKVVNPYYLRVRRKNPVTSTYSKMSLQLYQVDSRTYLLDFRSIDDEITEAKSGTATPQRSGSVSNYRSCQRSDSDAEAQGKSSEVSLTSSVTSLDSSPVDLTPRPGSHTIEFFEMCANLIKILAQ
Chain of AMPK A1/B1/G1 (Q9Y478 whole entry partner): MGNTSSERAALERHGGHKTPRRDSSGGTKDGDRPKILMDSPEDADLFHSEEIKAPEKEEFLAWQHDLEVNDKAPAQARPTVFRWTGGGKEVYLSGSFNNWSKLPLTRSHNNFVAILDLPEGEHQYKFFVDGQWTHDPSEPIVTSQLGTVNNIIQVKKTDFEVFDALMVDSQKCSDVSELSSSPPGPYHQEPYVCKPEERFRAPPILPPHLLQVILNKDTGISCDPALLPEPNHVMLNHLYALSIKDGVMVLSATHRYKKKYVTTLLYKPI
Chain of AMPK A1/B1/G1 (P54619 whole entry partner): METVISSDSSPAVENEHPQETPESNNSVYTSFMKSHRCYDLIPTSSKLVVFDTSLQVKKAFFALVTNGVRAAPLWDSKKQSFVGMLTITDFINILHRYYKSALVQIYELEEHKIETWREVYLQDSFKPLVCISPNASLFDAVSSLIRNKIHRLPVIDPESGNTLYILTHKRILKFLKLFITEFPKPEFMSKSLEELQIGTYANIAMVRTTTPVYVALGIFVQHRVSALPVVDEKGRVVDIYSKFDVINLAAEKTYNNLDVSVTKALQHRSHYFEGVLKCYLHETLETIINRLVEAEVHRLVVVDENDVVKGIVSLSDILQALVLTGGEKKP
In a further assay the target is CDK1/cyclin B (Homo sapiens, UniProt P06493). On the procedure:
as §1, §2, §3, §4, §5, §6, §7, §8, §9, §10, §11

The target in the next assay is T1, CHEK1 (CHK1) (Homo sapiens, UniProt O14757).
T1 sequence (O14757 1-476): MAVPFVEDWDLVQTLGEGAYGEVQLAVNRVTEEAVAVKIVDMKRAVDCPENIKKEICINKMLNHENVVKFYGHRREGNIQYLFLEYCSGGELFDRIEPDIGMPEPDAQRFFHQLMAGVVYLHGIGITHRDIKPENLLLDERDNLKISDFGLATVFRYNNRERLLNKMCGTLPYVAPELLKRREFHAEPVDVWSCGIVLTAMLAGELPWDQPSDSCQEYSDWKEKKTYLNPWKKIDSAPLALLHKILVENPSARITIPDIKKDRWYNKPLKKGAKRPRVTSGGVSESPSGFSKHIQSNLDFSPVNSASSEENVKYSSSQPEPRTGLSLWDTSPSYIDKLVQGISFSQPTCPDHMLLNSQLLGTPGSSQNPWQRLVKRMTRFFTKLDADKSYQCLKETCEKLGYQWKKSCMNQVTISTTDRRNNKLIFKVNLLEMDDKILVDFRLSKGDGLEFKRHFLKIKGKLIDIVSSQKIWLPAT
How it is done: as §1, §2, §3, §4, §5, §6, §7, §8, §9, §10, §11

For a further assay, the target named is CSNK2A1 (CK2 alpha 1) (Homo sapiens, UniProt P68400). How it is done:
as §1, §2, §3, §4, §5, §6, §7, §8, §9, §10, §11

A further assay has as its target LCK (Homo sapiens, UniProt P06239). How it is done:
as §1, §2, §3, §4, §5, §6, §7, §8, §9, §10, §11

In a further assay the target is MAP4K4 (HGK) (Homo sapiens, UniProt O95819). On the procedure:
as §1, §2, §3, §4, §5, §6, §7, §8, §9, §10, §11

In another assay the target is MARK2 (Homo sapiens, UniProt Q7KZI7). On the procedure: as §1, §2, §3, §4, §5, §6, §7, §8, §9, §10, §11
Another assay deals with PAK4 (Homo sapiens, UniProt O96013). How it is done: as §1, §2, §3, §4, §5, §6, §7, §8, §9, §10, §11
In a further assay the target is PIM1 (Homo sapiens, UniProt P11309). How it is done: as §1, §2, §3, §4, §5, §6, §7, §8, §9, §10, §11
Chain of PIM1 (P11309 whole entry, species assumed): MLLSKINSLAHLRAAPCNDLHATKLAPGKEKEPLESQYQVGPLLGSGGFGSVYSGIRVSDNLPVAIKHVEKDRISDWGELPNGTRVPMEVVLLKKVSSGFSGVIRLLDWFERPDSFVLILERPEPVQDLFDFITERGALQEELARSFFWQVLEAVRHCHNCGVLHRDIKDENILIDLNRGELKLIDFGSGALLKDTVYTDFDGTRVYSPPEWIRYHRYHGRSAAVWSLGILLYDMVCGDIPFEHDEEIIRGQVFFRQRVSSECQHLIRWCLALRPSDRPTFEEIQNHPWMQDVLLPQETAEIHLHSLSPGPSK
The next assay addresses PLK1 (Homo sapiens, UniProt P53350). How it is done: as §1, §2, §3, §4, §5, §6, §7, §8, §9, §10, §11
A further assay deals with RPS6KA3 (RSK2) (Homo sapiens, UniProt P51812). How it is done:
as §1, §2, §3, §4, §5, §6, §7, §8, §9, §10, §11

The target in another assay is RPS6KB1 (p70S6K) (Homo sapiens, UniProt P23443). How it is done: as §1, §2, §3, §4, §5, §6, §7, §8, §9, §10, §11
Another assay addresses TEK (Tie2) (Homo sapiens, UniProt Q02763). On the procedure: as §1, §2, §3, §4, §5, §6, §7, §8, §9, §10, §11

Chain of RPS6KA3 (RSK2) (P51812 whole entry, species assumed): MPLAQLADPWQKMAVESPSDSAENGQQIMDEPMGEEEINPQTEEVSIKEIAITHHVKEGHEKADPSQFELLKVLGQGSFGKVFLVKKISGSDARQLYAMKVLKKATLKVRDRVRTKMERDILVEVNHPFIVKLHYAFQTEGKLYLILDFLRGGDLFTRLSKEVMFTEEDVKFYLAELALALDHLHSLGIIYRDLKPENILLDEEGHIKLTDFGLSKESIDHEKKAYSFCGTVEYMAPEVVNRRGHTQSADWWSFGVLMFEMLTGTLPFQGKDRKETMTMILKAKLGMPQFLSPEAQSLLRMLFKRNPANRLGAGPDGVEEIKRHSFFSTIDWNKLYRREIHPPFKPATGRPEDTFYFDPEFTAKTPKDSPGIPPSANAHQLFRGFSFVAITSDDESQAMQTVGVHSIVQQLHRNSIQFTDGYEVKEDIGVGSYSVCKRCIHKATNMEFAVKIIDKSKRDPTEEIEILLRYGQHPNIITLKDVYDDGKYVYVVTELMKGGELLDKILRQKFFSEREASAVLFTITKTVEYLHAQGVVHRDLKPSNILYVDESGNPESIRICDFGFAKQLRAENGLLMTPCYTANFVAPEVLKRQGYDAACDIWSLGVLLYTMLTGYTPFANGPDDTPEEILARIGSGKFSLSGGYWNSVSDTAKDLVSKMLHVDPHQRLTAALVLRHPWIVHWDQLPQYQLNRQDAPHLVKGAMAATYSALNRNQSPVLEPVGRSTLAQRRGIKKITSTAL
Chain of AKT1 (PKB alpha) (P31749 whole entry, species assumed): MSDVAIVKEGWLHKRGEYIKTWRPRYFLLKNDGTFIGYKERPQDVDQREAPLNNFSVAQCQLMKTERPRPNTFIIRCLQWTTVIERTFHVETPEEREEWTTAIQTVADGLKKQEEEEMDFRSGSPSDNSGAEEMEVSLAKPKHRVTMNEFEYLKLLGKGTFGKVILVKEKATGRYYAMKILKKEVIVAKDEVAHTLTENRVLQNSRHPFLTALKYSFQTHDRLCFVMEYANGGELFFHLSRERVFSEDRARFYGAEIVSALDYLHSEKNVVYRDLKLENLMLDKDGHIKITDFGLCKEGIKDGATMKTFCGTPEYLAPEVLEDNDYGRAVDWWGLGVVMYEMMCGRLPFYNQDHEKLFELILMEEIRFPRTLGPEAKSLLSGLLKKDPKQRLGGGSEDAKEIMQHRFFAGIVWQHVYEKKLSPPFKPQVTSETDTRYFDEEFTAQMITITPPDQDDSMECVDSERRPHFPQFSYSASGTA
Chain of PLK1 (P53350 whole entry, species assumed): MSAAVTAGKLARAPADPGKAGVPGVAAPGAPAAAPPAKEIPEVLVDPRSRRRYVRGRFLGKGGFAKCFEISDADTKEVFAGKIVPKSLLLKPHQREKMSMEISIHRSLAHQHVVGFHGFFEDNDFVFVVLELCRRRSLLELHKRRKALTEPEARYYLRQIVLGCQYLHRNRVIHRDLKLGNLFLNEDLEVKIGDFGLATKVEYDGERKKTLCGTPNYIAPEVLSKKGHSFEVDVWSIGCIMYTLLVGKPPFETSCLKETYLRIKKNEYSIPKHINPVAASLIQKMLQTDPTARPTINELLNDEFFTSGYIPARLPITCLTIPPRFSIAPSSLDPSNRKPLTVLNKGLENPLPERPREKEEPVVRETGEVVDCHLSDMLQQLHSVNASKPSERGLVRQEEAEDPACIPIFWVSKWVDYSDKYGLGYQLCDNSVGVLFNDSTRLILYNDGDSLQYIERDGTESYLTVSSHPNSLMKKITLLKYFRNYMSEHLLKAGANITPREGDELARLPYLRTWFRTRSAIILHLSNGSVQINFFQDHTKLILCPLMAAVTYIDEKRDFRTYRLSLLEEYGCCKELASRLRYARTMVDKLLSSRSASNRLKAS
Chain of MAP4K4 (HGK) (O95819 whole entry, species assumed): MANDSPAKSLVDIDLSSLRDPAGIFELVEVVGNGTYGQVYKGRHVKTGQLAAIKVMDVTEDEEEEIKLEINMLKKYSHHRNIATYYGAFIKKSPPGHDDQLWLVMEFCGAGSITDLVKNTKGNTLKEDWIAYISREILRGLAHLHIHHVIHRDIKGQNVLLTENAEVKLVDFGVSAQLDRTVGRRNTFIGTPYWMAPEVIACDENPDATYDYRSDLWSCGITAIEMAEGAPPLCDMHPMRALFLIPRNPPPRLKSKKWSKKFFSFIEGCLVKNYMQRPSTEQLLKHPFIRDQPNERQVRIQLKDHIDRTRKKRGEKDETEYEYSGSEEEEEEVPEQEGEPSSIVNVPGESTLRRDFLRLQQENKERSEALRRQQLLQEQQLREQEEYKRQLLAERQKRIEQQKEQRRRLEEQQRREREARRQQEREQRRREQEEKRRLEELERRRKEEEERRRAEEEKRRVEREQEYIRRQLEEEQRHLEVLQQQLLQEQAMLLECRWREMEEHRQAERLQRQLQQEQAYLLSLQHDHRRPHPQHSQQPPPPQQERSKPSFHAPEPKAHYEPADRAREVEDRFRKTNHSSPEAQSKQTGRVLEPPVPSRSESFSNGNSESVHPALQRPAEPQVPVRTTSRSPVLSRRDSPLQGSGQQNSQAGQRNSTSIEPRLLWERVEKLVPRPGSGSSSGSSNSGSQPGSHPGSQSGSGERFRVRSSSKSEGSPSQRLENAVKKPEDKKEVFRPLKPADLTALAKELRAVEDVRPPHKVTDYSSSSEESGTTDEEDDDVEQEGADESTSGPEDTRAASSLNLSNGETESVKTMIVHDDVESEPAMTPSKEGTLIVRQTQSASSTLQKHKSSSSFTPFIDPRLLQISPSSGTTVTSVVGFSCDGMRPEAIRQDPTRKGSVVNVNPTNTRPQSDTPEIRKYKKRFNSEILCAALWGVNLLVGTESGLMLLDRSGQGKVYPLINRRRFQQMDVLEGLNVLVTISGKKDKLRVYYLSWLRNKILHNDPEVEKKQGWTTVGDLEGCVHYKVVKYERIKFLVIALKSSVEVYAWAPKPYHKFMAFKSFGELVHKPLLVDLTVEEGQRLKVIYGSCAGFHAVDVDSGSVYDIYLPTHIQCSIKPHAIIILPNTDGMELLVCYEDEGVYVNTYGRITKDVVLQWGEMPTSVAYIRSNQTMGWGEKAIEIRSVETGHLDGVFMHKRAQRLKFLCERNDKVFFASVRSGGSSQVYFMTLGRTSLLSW
Chain of CSNK2A1 (CK2 alpha 1) (P68400 whole entry, species assumed): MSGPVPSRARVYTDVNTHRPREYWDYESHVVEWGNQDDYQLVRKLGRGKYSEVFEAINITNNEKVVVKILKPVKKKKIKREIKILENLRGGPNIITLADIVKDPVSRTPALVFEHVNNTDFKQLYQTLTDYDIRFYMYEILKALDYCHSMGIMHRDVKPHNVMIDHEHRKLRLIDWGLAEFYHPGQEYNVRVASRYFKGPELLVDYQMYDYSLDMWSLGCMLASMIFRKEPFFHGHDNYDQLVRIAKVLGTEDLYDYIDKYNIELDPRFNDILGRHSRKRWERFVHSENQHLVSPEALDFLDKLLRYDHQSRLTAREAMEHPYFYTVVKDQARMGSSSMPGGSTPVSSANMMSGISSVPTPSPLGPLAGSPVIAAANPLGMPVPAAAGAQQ

Turning to `Nc1ncnc2c1ncn2[C@@H]1O[C@H](COC(=O)NCCCc2nc3ccccc3[nH]2)[C@@H](O)[C@H]1O` [Compound C1], the inhibition (commonly the change of the read-out against control, counted positive when it falls) at 10 µM on ABL1 is 13%; on AKT1 (PKB alpha), -2%; against AMPK A1/B1/G1, 17%; against CDK1/cyclin B, -2%; at CHEK1 (CHK1), -20%; against CSNK2A1 (CK2 alpha 1), -5%. For the same compound, the inhibition at 10 µM on LCK was 72%; at MAP4K4 (HGK), 17%; against MARK2, 3%; against PAK4, 15%; against PIM1, -2%; on PLK1, -8%. In addition, the inhibition at 10 µM on RPS6KA3 (RSK2) is 8%; against RPS6KB1 (p70S6K), 15%; at TEK (Tie2), 3%.
For the compound `C[C@@H](NC(=O)OC[C@H]1O[C@@H](n2cnc3c(N)ncnc32)[C@H](O)[C@@H]1O)c1ccc(Cl)cc1` [Compound C4], the inhibition at 10 µM against ABL1 is 11%; at AKT1 (PKB alpha), -2%; against AMPK A1/B1/G1, 17%; at CDK1/cyclin B it was 8%; against CHEK1 (CHK1), -11%; against CSNK2A1 (CK2 alpha 1) it was 8%. Moreover, the inhibition at 10 µM at LCK is 60%; against MAP4K4 (HGK), 16%; on MARK2 it was 20%; against PAK4, 12%; against PIM1, -8%; at PLK1 it was -3%. In addition, the inhibition at 10 µM on RPS6KA3 (RSK2) worked out at 9%; against RPS6KB1 (p70S6K), 22%; on TEK (Tie2) it was 12%.
`Nc1ncnc2c1ncn2[C@@H]1O[C@H](COC(=O)NC[C@H](O)CO)[C@@H](O)[C@H]1O` [Compound C8]: the inhibition at 10 µM at ABL1 is 22%; on AKT1 (PKB alpha), 7%; against AMPK A1/B1/G1 it was 17%; against CDK1/cyclin B it was 4%; against CHEK1 (CHK1) it was -8%; at CSNK2A1 (CK2 alpha 1) it was 5%. Moreover, the inhibition at 10 µM at LCK was 26%; against MAP4K4 (HGK), 9%; at MARK2, 10%; at PAK4, 19%; on PIM1, 11%; against PLK1, -1%. Moreover, the values for the inhibition at 10 µM at RPS6KA3 (RSK2), against RPS6KB1 (p70S6K) and on TEK (Tie2) were 19%, 11% and -3%, respectively.
Turning to `Nc1ncnc2c1ncn2[C@@H]1O[C@H](COC(=O)N2CCC[C@H]2CO)[C@@H](O)[C@H]1O` [Compound C9], the inhibition at 10 µM on ABL1 was -2%; on AKT1 (PKB alpha) it was 3%; on AMPK A1/B1/G1, 4%; on CDK1/cyclin B, 3%; against CHEK1 (CHK1) it was 14%; against CSNK2A1 (CK2 alpha 1) it was 5%. For the same compound, the inhibition at 10 µM was 19% against LCK; -2% against MAP4K4 (HGK); 6% against MARK2; 1% on PAK4; 3% against PIM1; -1% on PLK1. Further, the results for the inhibition at 10 µM on RPS6KA3 (RSK2), against RPS6KB1 (p70S6K) and at TEK (Tie2) were 1%, 3% and -4%, respectively.
For the compound `Nc1ncnc2c1ncn2[C@@H]1O[C@H](COC(=O)N[C@@H]2CCN(Cc3ccccc3)C2)[C@@H](O)[C@H]1O` [Compound C10], the inhibition at 10 µM against ABL1 is 10%; at AKT1 (PKB alpha), 4%; at AMPK A1/B1/G1, 11%; at CDK1/cyclin B, 11%; against CHEK1 (CHK1) it was -3%; against CSNK2A1 (CK2 alpha 1), 2%. The inhibition at 10 µM against LCK is 62%; at MAP4K4 (HGK), 8%; at MARK2, 8%; at PAK4, 14%; at PIM1, 1%; against PLK1 it was -13%. Also, the inhibition at 10 µM against RPS6KA3 (RSK2) worked out at 8%; on RPS6KB1 (p70S6K), 5%; against TEK (Tie2), 6%.
